Reference: ChEMBL document CHEMBL4842359, “1,3-Diarylpyrazolyl-acylsulfonamides as Potent Anti-tuberculosis Agents Targeting Cell Wall Biosynthesis in Mycobacterium tuberculosis” (J Med Chem, 2021)
Converted amounts (≈) assume the structure as drawn.

Assays:
[1] = tested on: Mycobacterium tuberculosis; test: microbe, parasite or virus in culture; details: H37Rv, 336 h
Description: Antimycobacterial activity against Mycobacterium tuberculosis H37Rv in presence of middlebrook 7H9/glucose/BSA/tyloxapol medium measured after 14 days by bioluminescence reporter assay

[2] = Thermodynamic solubility of compound at pH 7.4 aqueous phosphate buffer
[3] = Metabolic stability in mouse liver microsomes assessed as compound remaining at 1 uM by LC-MS/MS analysis; type: ADME, Microsome; details: microsomes, 1 µM
[4] = Lipophilicity, logD of the compound at pH 7.4 by HPLC-DAD analysis; type: physicochemical; details: buffer
[5] = Unbound clearance in iv dosed C57BL/6 mouse measured up to 24 hrs by LC-MS/MS analysis; type: ADME, organism-based; details: in vivo
[6] = Metabolic stability in human liver microsomes assessed as compound remaining at 1 uM by LC-MS/MS analysis; type: ADME, Microsome; details: microsomes, 1 µM
[7] = Metabolic stability in rat liver microsomes assessed as compound remaining at 1 uM by LC-MS/MS analysis; type: ADME, Microsome; details: microsomes, 1 µM
[8] = Plasma protein binding in human assessed as unbound fraction at 5 uM by LC-MS/MS analysis; type: ADME, cell-free; details: 5 µM
[9] = Terminal half life in iv dosed C57BL/6 mouse measured up to 24 hrs by LC-MS/MS analysis; type: ADME, organism-based; details: mouse, in vivo, 24 h
[10] = AUC (0 to t) in iv dosed C57BL/6 mouse measured up to 24 hrs by LC-MS/MS analysis; type: ADME, organism-based; design: time <=24; details: in vivo
[11] = Volume of distribution in iv dosed C57BL/6 mouse measured up to 24 hrs by LC-MS/MS analysis; type: ADME, organism-based; details: in vivo
[12] = tested on: Mycobacterium tuberculosis; test: microbe, parasite or virus in culture; details: H37RvMA, 336 h
Description: Antimycobacterial activity against Mycobacterium tuberculosis H37RvMA in presence of middlebrook 7H9/glucose/BSA/tyloxapol medium measured for 2 weeks by bioluminescence reporter assay

Row | SMILES | MIC [1] [µM] | solubility thermodynamic [2] [µM] | also measured
1 | CS(=O)(=O)NC(=O)CCc1cn(-c2ccc(Br)cc2)nc1Cc1ccccc1 | > 50 | 200 (≈ 92.5 µg/mL) | 
2 | CNC(=O)CCc1cn(-c2ccc(Br)cc2)nc1-c1ccc(Cl)cc1 | > 50 | < 5 | 
3 | CS(=O)(=O)NC(=O)CCc1cn(-c2ccc(C(F)(F)F)cc2)nc1-c1ccc(Cl)cc1 | 3.1 (≈ 1.46 µg/mL) | 50 (≈ 23.6 µg/mL) | 
4 | CS(=O)(=O)NC(=O)CCc1cc(-c2ccc(Br)cc2)n(-c2ccc(Cl)cc2)n1 | > 50 | 170 (≈ 82.1 µg/mL) | 
5 | CS(=O)(=O)NC(=O)CCc1cc(-c2ccc(Cl)cc2)nn1-c1ccc(F)cc1 | 5.5 (≈ 2.32 µg/mL) | 195 (≈ 82.3 µg/mL) | 
6 | CS(=O)(=O)NC(=O)NCc1cn(-c2ccc(Cl)cc2)nc1-c1ccc(Cl)cc1 | 3.13 (≈ 1.38 µg/mL) | < 5 | 
7 | CS(=O)(=O)NC(=O)CCc1cn(-c2ccc(Br)cc2)nc1C1CCN(C=O)CC1 | 50 (≈ 24.2 µg/mL) | 200 (≈ 96.7 µg/mL) | 
8 | CS(=O)(=O)NC(=O)C1CC1c1cn(-c2ccc(Cl)cc2)nc1-c1ccncc1 (stereo unspecified) | 19 (≈ 7.92 µg/mL) | 200 (≈ 83.4 µg/mL) | Stabilty [3]: 96%; logD [4]: 1.06; CL free [5]: > 1200 L/h/kg; Stabilty [6]: > 99%; Stabilty [7]: 92%; Fu [8]: 0.01 fraction; beta t1/2 [9]: 0.9 h; AUCt [10]: 21 µmol·min/L
9 | CS(=O)(=O)NC(=O)Cc1cn(-c2ccc(Br)cc2)nc1-c1ccc(Cl)cc1 | > 50 |  | 
10 | CS(=O)(=O)NC(=O)CCc1cn(-c2ccccc2)nc1-c1ccc(Cl)cc1 | > 50 | 200 (≈ 80.8 µg/mL) | 
11 | CS(=O)(=O)NC(=O)CCc1cn(-c2ccc(Br)cc2)nc1-c1cccnc1 | 6.25 (≈ 2.81 µg/mL) | 200 (≈ 89.9 µg/mL) | Stabilty [3]: 94%; logD [4]: 0.84; CL free [5]: 485.5 L/h/kg; Stabilty [6]: 37%; Stabilty [7]: 95%; Fu [8]: 0.022 fraction; beta t1/2 [9]: 1.7 h; AUCt [10]: 31 µmol·min/L; Vd ([11]; mouse, 24 h): 28.1 L/kg
12 | CS(=O)(=O)NC(=O)CCc1cn(-c2ccc(Cl)cc2)nc1-c1ccccc1Cl | > 50 | 90 (≈ 39.5 µg/mL) | 
13 | O=C1NC(=O)C(Cc2cn(-c3ccc(Cl)cc3)nc2-c2ccc(Cl)cc2)C(=O)N1 | > 50 |  | 
14 | CS(=O)(=O)NCCCc1cn(-c2ccc(Br)cc2)nc1-c1ccc(Cl)cc1 | > 50 | < 5 | 
15 | CS(=O)(=O)NC(=O)CCc1nn(-c2ccc(Br)cc2)cc1-c1ccc(Cl)cc1 | 37 (≈ 17.9 µg/mL) | 135 (≈ 65.2 µg/mL) | 
16 | CS(=O)(=O)NC(=O)CCc1sc(-c2ccc(Cl)cc2)nc1-c1ccc(Cl)cc1 | 19 (≈ 8.65 µg/mL) | 90 (≈ 41 µg/mL) | 
17 | CS(=O)(=O)NC(=O)/C=C/c1cn(-c2ccc(Br)cc2)nc1-c1ccncc1 | 12 (≈ 5.37 µg/mL) | 115 (≈ 51.4 µg/mL) | 
18 | CS(=O)(=O)NC(=O)CCc1cn(-c2ccccc2Br)nc1-c1ccc(Cl)cc1 | > 50 | 165 (≈ 79.7 µg/mL) | 
19 | CS(=O)(=O)NC(=O)CCn1nc(-c2ccc(Cl)cc2)cc1-c1ccc(Cl)cc1 | > 50 | 200 (≈ 87.7 µg/mL) | 
20 | C[S+]([O-])c1ccc(-n2cc(CCC(=O)NS(C)(=O)=O)c(-c3ccc(Cl)cc3)n2)cc1 (stereo unspecified) | ≥ 50 | 200 (≈ 93.2 µg/mL) | 
21 | CS(=O)(=O)NC(=O)CCc1cn(-c2ccc(Br)cc2)nc1-c1ccc([N+](=O)[O-])cc1 |  | < 5 | 
22 | Clc1ccc(-c2nn(-c3ccc(Br)cc3)cc2CCc2nnn[nH]2)cc1 | > 50 | 150 (≈ 64.5 µg/mL) | 
23 | O=C(O)CCc1cn(-c2ccc(Br)cc2)nc1-c1ccc(Cl)cc1 | > 50 | 155 (≈ 62.9 µg/mL) | 
24 | CS(=O)(=O)NC(=O)CCc1cn(-c2ccncc2)nc1-c1ccc(Cl)cc1 | > 50 | 190 (≈ 76.9 µg/mL) | 
25 | CS(=O)(=O)NC(=O)OCc1cn(-c2ccc(Cl)cc2)nc1-c1ccncc1 | 123 (≈ 50 µg/mL) |  | Stabilty [3]: 98%; logD [4]: 2.73; CL free [5]: > 1200 L/h/kg; Stabilty [6]: 97%; Stabilty [7]: 97%; Fu [8]: 0.03 fraction; beta t1/2 [9]: 5.8 h; AUCt [10]: 22 µmol·min/L; Vd ([11]; C57BL/6, mouse, read-out: Vd): 0.1 L/kg
26 | CC(=O)NS(=O)(=O)CCc1cn(-c2ccc(Br)cc2)nc1-c1ccc(Cl)cc1 | > 50 | 165 (≈ 79.7 µg/mL) | 
27 | CC(CC(=O)NS(C)(=O)=O)c1cn(-c2ccc(Cl)cc2)nc1-c1ccncc1 (stereo unspecified) | 50 (≈ 20.9 µg/mL) | 170 (≈ 71.2 µg/mL) | 

Row | SMILES | MIC [1] [µM] | solubility thermodynamic [2] [µM] | also measured
28 | O=C(CCc1cn(-c2ccc(Br)cc2)nc1-c1ccc(Cl)cc1)NS(=O)(=O)C1CC1 | > 50 | 5 (≈ 2.54 µg/mL) | 
29 | CS(=O)(=O)NC(=O)C1CC1c1cn(-c2ccc(Br)cc2)nc1-c1ccncc1 (stereo unspecified) | 12.5 (≈ 5.77 µg/mL) | 155 (≈ 71.5 µg/mL) | 
30 | CS(=O)(=O)NC(=O)CCc1cn(C2CCCCC2)nc1-c1ccc(Cl)cc1 | > 50 | 200 (≈ 82 µg/mL) | 
31 | CN(C(=O)CCc1cn(-c2ccc(Br)cc2)nc1-c1ccc(Cl)cc1)S(C)(=O)=O | > 50 | < 5 | 
32 | CS(=O)(=O)NC(=O)CCc1oc(-c2ccc(Cl)cc2)nc1-c1ccc(Cl)cc1 | 37 (≈ 16.3 µg/mL) | 200 (≈ 87.9 µg/mL) | 
33 | CS(=O)(=O)NC(=O)CCc1cn(-c2cccc(Br)c2)nc1-c1ccc(Cl)cc1 | > 50 | < 5 | 
34 | CC(Cc1cn(-c2ccc(Cl)cc2)nc1-c1ccncc1)C(=O)NS(C)(=O)=O (stereo unspecified) | > 50 | 190 (≈ 79.6 µg/mL) | 
35 | CS(=O)(=O)NC(=O)CCc1cn(-c2ccc(Br)cc2)nc1-c1ccc(N)cc1 | 25 (≈ 11.6 µg/mL) | 160 (≈ 74.1 µg/mL) | 
36 | CS(=O)(=O)NC1=NOC(c2cn(-c3ccc(Cl)cc3)nc2-c2ccc(Cl)cc2)C1 (stereo unspecified) | 25 (≈ 11.3 µg/mL) | 175 (≈ 79 µg/mL) | 
37 | CS(=O)(=O)NC(=O)CCc1cn(-c2ccc(Br)cc2)nc1C1CCOCC1 | 9.4 (≈ 4.29 µg/mL) | 200 (≈ 91.3 µg/mL) | Stabilty [3]: 77%; logD [4]: 0.55; CL free [5]: 124.3 L/h/kg; Stabilty [6]: 86%; Stabilty [7]: 83%; Fu [8]: 0.07 fraction; beta t1/2 [9]: 2.3 h; AUCt [10]: 31 µmol·min/L; Vd ([11]; mouse, 24 h): 29.3 L/kg
38 | CS(=O)(=O)NC(=O)CCc1cn(-c2ccc(Br)cc2)nc1-c1cnccn1 | 20 (≈ 9.01 µg/mL) | 196 (≈ 88.3 µg/mL) | 
39 | CS(=O)(=O)NC(=O)CCc1cn(-c2ccc(Br)cc2)nc1C1CCNCC1 | > 50 | 196 (≈ 89.3 µg/mL) | 
40 | CCS(=O)(=O)NC(=O)CCc1cn(-c2ccc(Br)cc2)nc1-c1ccc(Cl)cc1 |  | 10 (≈ 4.97 µg/mL) | 
41 | CS(=O)(=O)NC(=O)NCc1cn(-c2ccc(C(F)(F)F)nc2)nc1-c1ccncc1 |  | 195 (≈ 85.9 µg/mL) | 
42 | CS(=O)(=O)NC(=O)CCc1cn(-c2ccc(Br)cc2)nc1-c1cccc(Cl)c1 |  | 165 (≈ 79.7 µg/mL) | 
43 | CS(=O)(=O)NC(=O)CCc1cn(-c2ccc(Br)cc2)nc1-c1ccccc1 | 2.3 (≈ 1.03 µg/mL) | 200 (≈ 89.7 µg/mL) | 
44 | CS(=O)(=O)NC(=O)CCc1cn(-c2ccc(C(F)(F)F)nc2)nc1-c1ccc(Cl)cc1 | 4.7 (≈ 2.22 µg/mL) | 90 (≈ 42.6 µg/mL) | Stabilty [3]: 94%; logD [4]: 1.87; CL free [5]: 112.3 L/h/kg; Stabilty [6]: 94%; Stabilty [7]: 98%; Fu [8]: 0.036 fraction; beta t1/2 [9]: 3 h; AUCt [10]: 134 µmol·min/L; Vd ([11]; mouse, 24 h): 8.7 L/kg
45 | CS(=O)(=O)NC(=O)CCc1cn(-c2ccc(Br)cc2)nc1C1CCCCC1 | 9.4 (≈ 4.27 µg/mL) | 60 (≈ 27.3 µg/mL) | 
46 | CS(=O)(=O)NC(=O)CCCc1cn(-c2ccc(Br)cc2)nc1-c1ccc(Cl)cc1 | 37 (≈ 18.4 µg/mL) | 135 (≈ 67.1 µg/mL) | 
47 | CS(=O)(=O)NC(=O)CCc1cn(-c2ccc(C#N)cc2)nc1-c1ccc(Cl)cc1 | 25 (≈ 10.7 µg/mL) | 75 (≈ 32.2 µg/mL) | 
48 | O=c1[nH]nc(CCc2cn(-c3ccc(Br)cc3)nc2-c2ccc(Cl)cc2)o1 | 19 (≈ 8.47 µg/mL) | < 5 | 
49 | O=c1[nH]c(CCc2cn(-c3ccc(Br)cc3)nc2-c2ccc(Cl)cc2)no1 | 50 (≈ 22.3 µg/mL) | < 5 | 
50 | CS(=O)(=O)NC(=O)CCc1cn(-c2ccc(F)cc2)nc1-c1ccc(Cl)cc1 | 37 (≈ 15.6 µg/mL) | 25 (≈ 10.5 µg/mL) | 
51 | CCc1cc(C(N)=S)ccn1 [ETHIONAMIDE] |  |  | MIC [12]: 15.6 µM (≈ 2.59 µg/mL)
52 | CS(=O)(=O)NC(=O)/C=C/c1cn(-c2ccc(Cl)cc2)nc1-c1ccncc1 | 4.7 (≈ 1.89 µg/mL) | 90 (≈ 36.3 µg/mL) | Stabilty [3]: 85%; logD [4]: 0.98; CL free [5]: > 1200 L/h/kg; Stabilty [6]: 88%; Stabilty [7]: 82%; Fu [8]: 0.015 fraction; beta t1/2 [9]: 1.1 h; AUCt [10]: 8.7 µmol·min/L
53 | CS(=O)(=O)NC(=O)CCc1cc(-c2ccc(Br)cc2)nn1-c1ccc(Cl)cc1 | 6.25 (≈ 3.02 µg/mL) | 200 (≈ 96.6 µg/mL) | Stabilty [3]: 91%; logD [4]: 2.1; CL free [5]: 18.8 L/h/kg; Stabilty [6]: > 99%; Stabilty [7]: 87%; Fu [8]: 0.01 fraction; beta t1/2 [9]: 3.6 h; AUCt [10]: 1359 µmol·min/L; Vd ([11]; mouse, 24 h): 1 L/kg
54 | CS(=O)(=O)NC(=O)NCc1cc(-c2ccc(Br)cc2)oc1-c1ccncc1 |  | 25 (≈ 11.3 µg/mL) | Stabilty [3]: 85%; logD [4]: 0.36; CL free [5]: > 1200 L/h/kg; Stabilty [6]: 98%; Stabilty [7]: 87%; AUCt [10]: 20 µmol·min/L
